From patent US11572398B2, “GLP-1 derivatives and uses thereof” (Novo Nordisk A/S, priority 2014, dated 2023)
Read-outs that look alike come from different tables or passages of the source. Non-standard residues stand in square brackets, D forms with d. Residues, ends and D or L forms follow the SMILES beside them. Groups on a side chain read outwards from the residue. *: point of attachment. X2 = O=C(O)CCCCCCCCCCCCCCCCCCC(=O)NC[C@H]1CC[C@H](C(=O)N[C@@H](CCC(=O)NCCCN(CCCNC(=O)CC[C@H](NC(=O)[C@H]2CC[C@H](CNC(=O)CCCCCCCCCCCCCCCCCCC(=O)O)CC2)C(=O)O)CC(=O)*)C(=O)O)CC1; AEEA = NCCOCCOCC(=O)O; Aib = CC(C)(N)C(=O)O

How the values were obtained:
[1] = biological target: T1, human GLP-1 receptor (Homo sapiens, UniProt P43220); test: GLP-1 receptor binding: competitive binding assay (125I-GLP-1, SPA) on isolated membranes at low and high HSA
T1 construct: expressed in transfected cells; host or cells: BHK cells (parent line BHKTS13), clone FCW467-12A; membrane preparation
T1 sequence (P43220 24-463): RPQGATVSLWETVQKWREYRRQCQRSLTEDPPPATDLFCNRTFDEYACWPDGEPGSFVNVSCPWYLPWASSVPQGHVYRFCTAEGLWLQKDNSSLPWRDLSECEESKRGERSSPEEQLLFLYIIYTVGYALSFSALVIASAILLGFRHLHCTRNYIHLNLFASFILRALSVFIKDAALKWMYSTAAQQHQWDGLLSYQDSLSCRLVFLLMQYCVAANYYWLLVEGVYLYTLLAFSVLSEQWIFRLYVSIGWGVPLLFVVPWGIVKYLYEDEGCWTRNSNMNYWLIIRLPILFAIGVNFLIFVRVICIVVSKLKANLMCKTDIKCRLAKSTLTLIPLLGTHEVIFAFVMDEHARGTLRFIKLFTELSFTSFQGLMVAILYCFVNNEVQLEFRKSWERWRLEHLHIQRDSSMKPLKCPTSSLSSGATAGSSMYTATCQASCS
Protocol: The purpose of this example is to test the receptor binding of the GLP-1 derivatives in vitro. The receptor binding is a measure of affinity of a derivative for the human GLP-1 receptor.
Each derivative is added in a series of concentrations to isolated membranes containing the human GLP-1 receptor and displacement of the labelled ligand is monitored. The receptor binding is reported as the concentration at which half of the labelled ligand is displaced from the receptor, the IC50 value.
Buffer 1 consisted of 20 mM Na-HEPES plus 10 mM EDTA and pH was adjusted to 7.4. Buffer 2 consisted of 20 mM Na-HEPES plus 0.1 mM EDTA and pH was adjusted to 7.4. Assay buffer consisted of 50 mM HEPES supplemented with 5 mM EGTA, 5 mM MgCl2, 0.005% Tween 20 and pH was adjusted to 7.4. An 8% albumin stock consisted of HSA dissolved at 8% (w/v) in assay buffer. An 0.02% albumin stock consisted of HSA dissolved at 0.02% (w/v) in assay buffer.
The cells express the human GLP-1 receptor.
The cells were grown at 5% CO2 in DMEM, 10% fetal calf serum, 1% Pen/Strep (Penicillin/Streptomycin) and 1.0 mg/ml of the selection marker G418. To make a membrane preparation the cells were grown to approximately 80% confluence. The cells were washed twice in phosphate-buffered saline and harvested. The cells were pelleted using a brief centrifugation and the cell pellet was kept on ice. […] The homogenate was centrifuged for 15 minutes. The pellet was re-suspended (homogenised) in 10 ml buffer 2 and centrifuged. This step was repeated once more. The resulting pellet was re-suspended in buffer 2 and the protein concentration was determined. The membranes were aliquoted and stored at minus 80° C.
1. […] Assay continued with step 3.
2. For the receptor binding assay in the presence of high HSA (2%) 50 μl of the 8% albumin stock was added to each well of an assay plate. Assay continued with step 3.
4. Cell membrane aliquots were thawed and diluted to their working concentration. Fifty μl were added to each well in the assay plate.
5. WGA SPA beads were suspended in assay buffer at 20 mg/ml. The suspension was diluted to 10 mg/ml in assay buffer just prior to addition to the assay plate. Fifty μl were added to each well in the assay plate.
6. […] A 25 μl aliquot was reserved for measuring total counts/well.
7. The assay plate was incubated for 2 h at 30° C.
8. The assay plate was centrifuged for 10 min.
9. The assay plate was read in a Packard TopCount NXT instrument.
The data from the TopCount instrument were transferred to GraphPad Prism software. Individual replicates were analysed using non-linear regression. IC50 values were calculated by the software and reported in nM. The reported values are averages of all of the measured values for each compound.

[2] = biological target: T1, human GLP-1 receptor; test: In vitro potency: CRE luciferase reporter gene assay in BHK cells expressing the human GLP-1 receptor; type: cell-based; details: whole cell reporter gene assay, BHK cells, human GLP-1 receptor; average of at least two replicates; read-out: EC50
Protocol: The purpose of this example is to test the activity, or potency, of the GLP-1 derivatives in vitro. The in vitro potency is the measure of human GLP-1 receptor activation in a whole cell assay.
In vitro potency was determined by measuring the response of the human GLP-1 receptor in a reporter gene assay. The assay was performed in a stably transfected BHK cell line that expresses the human GLP-1 receptor and contains the DNA for the cAMP response element (CRE) coupled to a promoter and the gene for firefly luciferase (CRE luciferase). When the human GLP-1 receptor is activated it results in the production of cAMP, which in turn results in the luciferase protein being expressed. When assay incubation is completed the luciferase substrate (luciferin) is added and the enzyme converts luciferin to oxyluciferin to produce bioluminescence. The luminescence is measured as the readout for the assay.
The cells were cultured at 5% CO2 in cell culture medium. They were aliquoted and stored in liquid nitrogen. Before each assay an aliquot was taken up and washed twice in PBS before being suspended at the desired concentration in the assay specific buffer.
The assay buffer consisted of 2% ovalbumin and 0.2% Pluronic F-68 in assay medium.
1) Cell stocks were thawed in a 37° C. water bath.
2) Cells were washed three times in PBS.
3) Cells were counted and adjusted to 5×10^3 cells/50 μl (1×10^5 cells/ml) in assay medium. A 50 μl aliquot of cells was transferred to each well in the assay plate.
4) Stocks of the test compounds and reference compounds were diluted to a concentration of 0.2 μM in assay buffer. […] 8) A 100 μl aliquot of steadylite plus reagent was added to each well of the assay plate. 9) Each assay plate was covered with aluminum foil to protect it from light and shaken for 30 min at room temperature. 10) Each assay plate was read in a BioTek Synergy 2 Multi-Mode Reader. Calculations and Results
The data from the BioTek Synergy 2 Multi-Mode Reader were transferred to GraphPad Prism software. The software performs a non-linear regression (log(agonist) vs response (three parameters)).
A minimum of two replicates were measured for each sample. The reported EC50 values are averages of all of the measured values for each compound.

[3] = high HSA (2.0% final assay concentration), read-out: High HSA IC50
[4] = low HSA (max. 0.001% final assay concentration), read-out: Low HSA IC50

Row | IC50 [1, 4] [pM] | EC50 [2] [pM] | SMILES | IC50 [1, 3] [pM]
1 | 190 | 10 | CC[C@H](C)[C@H](NC(=O)[C@H](Cc1ccccc1)NC(=O)[C@H](CCC(=O)O)NC(=O)[C@H](CCCNC(=N)N)NC(=O)[C@H](C)NC(=O)[C@H](C)NC(=O)[C@H](CCC(N)=O)NC(=O)[C@H](CCC(=O)O)NC(=O)[C@H](CCC(=O)O)NC(=O)[C@H](CC(C)C)NC(=O)[C@H](Cc1ccc(O)cc1)NC(=O)[C@H](CO)NC(=O)[C@H](CO)NC(=O)[C@@H](NC(=O)[C@H](CC(=O)O)NC(=O)[C@H](CO)NC(=O)[C@@H](NC(=O)[C@H](Cc1ccccc1)NC(=O)[C@@H](NC(=O)CNC(=O)[C@H](CCC(=O)O)NC(=O)C(C)(C)NC(=O)[C@@H](N)Cc1c[nH]cn1)[C@@H](C)O)[C@@H](C)O)C(C)C)C(=O)N[C@@H](C)C(=O)N[C@@H](Cc1c[nH]c2ccccc12)C(=O)N[C@@H](CC(C)C)C(=O)N[C@H](C(=O)N[C@@H](CCCNC(=N)N)C(=O)NCC(=O)N[C@@H](CCCNC(=N)N)C(=O)N[C@@H](CCCCNC(=O)CN(CCCNC(=O)CCOCCOCCOCCOCCOCCOCCOCCOCCOCCOCCOCCOCCNC(=O)[C@@H](N)CCCCNC(=O)[C@@H](N)CCCCNC(=O)CCCCCCCCCCCCCCCCCCC(=O)O)CCCNC(=O)CCOCCOCCOCCOCCOCCOCCOCCOCCOCCOCCOCCOCCNC(=O)[C@@H](N)CCCCNC(=O)[C@@H](N)CCCCNC(=O)CCCCCCCCCCCCCCCCCCC(=O)O)C(=O)O)C(C)C [Example 8, N{Epsilon-37}-[2-[bis[3-[3-[2-[2-[2-[2-[2-[2-[2-[2-[2-[2-[2-[2-[[(2S)-2-amino-6-[[(2S)-2-amino-6-(19-carboxynonadecanoylamino)hexanoyl]amino]hexanoyl]amino]ethoxy]ethoxy]ethoxy]ethoxy]ethoxy]ethoxy]ethoxy]ethoxy]ethoxy]ethoxy]ethoxy]ethoxy]propanoylamino]propyl]amino]acetyl]-[Aib8,Glu22,Arg26,Arg34,Lys37]-GLP-1-(7-37)-peptide] | 27000
2 | 40 | 6.3 | CC[C@H](C)[C@H](NC(=O)[C@H](Cc1ccccc1)NC(=O)[C@H](CCC(=O)O)NC(=O)[C@H](CCCNC(=N)N)NC(=O)[C@H](C)NC(=O)[C@H](C)NC(=O)[C@H](CCC(N)=O)NC(=O)[C@H](CCC(=O)O)NC(=O)[C@H](CCC(=O)O)NC(=O)[C@H](CC(C)C)NC(=O)[C@H](Cc1ccc(O)cc1)NC(=O)[C@H](CO)NC(=O)[C@H](CO)NC(=O)[C@@H](NC(=O)[C@H](CC(=O)O)NC(=O)[C@H](CO)NC(=O)[C@@H](NC(=O)[C@H](Cc1ccccc1)NC(=O)[C@@H](NC(=O)CNC(=O)[C@H](CCC(=O)O)NC(=O)C(C)(C)NC(=O)[C@@H](N)Cc1c[nH]cn1)[C@@H](C)O)[C@@H](C)O)C(C)C)C(=O)N[C@@H](C)C(=O)N[C@@H](Cc1c[nH]c2ccccc12)C(=O)N[C@@H](CC(C)C)C(=O)N[C@H](C(=O)N[C@@H](CCCNC(=N)N)C(=O)NCC(=O)N[C@@H](CCCNC(=N)N)C(=O)N[C@@H](CCCCNC(=O)CN(CCCNC(=O)COCCOCCNC(=O)COCCOCCNC(=O)COCCOCCNC(=O)COCCOCCNC(=O)[C@@H](N)CCCCNC(=O)[C@@H](N)CCCCNC(=O)CCCNC(=O)CCCCCCCCCCCCCCCS(=O)(=O)O)CCCNC(=O)COCCOCCNC(=O)COCCOCCNC(=O)COCCOCCNC(=O)COCCOCCNC(=O)[C@@H](N)CCCCNC(=O)[C@@H](N)CCCCNC(=O)CCCNC(=O)CCCCCCCCCCCCCCCS(=O)(=O)O)C(=O)O)C(C)C [Example 14, N{Epsilon-37}-[2-[bis[3-[[2-[2-[2-[[2-[2-[2-[[2-[2-[2-[[2-[2-[2-[[(2S)-2-amino-6-[[(2S)-2-amino-6-[4-(16-sulfohexadecanoylamino)butanoylamino]hexanoyl]amino]hexanoyl]amino]ethoxy]ethoxy]acetyl]amino]ethoxy]ethoxy]acetyl]amino]ethoxy]ethoxy]acetyl]amino]ethoxy]ethoxy]acetyl]amino]propyl]amino]acetyl]-[Aib8,Glu22,Arg26,Arg34,Lys37]-GLP-1-(7-37)-peptide] | 
3 |  |  | CC[C@H](C)[C@H](NC(=O)[C@H](Cc1ccccc1)NC(=O)[C@H](CCC(=O)O)NC(=O)[C@H](CCCNC(=N)N)NC(=O)[C@H](C)NC(=O)[C@H](C)NC(=O)[C@H](CCC(N)=O)NC(=O)[C@H](CCC(=O)O)NC(=O)[C@H](CCC(=O)O)NC(=O)[C@H](CC(C)C)NC(=O)[C@H](Cc1ccc(O)cc1)NC(=O)[C@H](CO)NC(=O)[C@H](CO)NC(=O)[C@@H](NC(=O)[C@H](CC(=O)O)NC(=O)[C@H](CO)NC(=O)[C@@H](NC(=O)[C@H](Cc1ccccc1)NC(=O)[C@@H](NC(=O)CNC(=O)[C@H](CCC(=O)O)NC(=O)C(C)(C)NC(=O)[C@@H](N)Cc1c[nH]cn1)[C@@H](C)O)[C@@H](C)O)C(C)C)C(=O)N[C@@H](C)C(=O)N[C@@H](Cc1c[nH]c2ccccc12)C(=O)N[C@@H](CC(C)C)C(=O)N[C@H](C(=O)N[C@@H](CCCNC(=N)N)C(=O)NCC(=O)N[C@@H](CCCCNC(=O)COCCOCCNC(=O)COCCOCCNC(=O)COCCOCCNC(=O)COCCOCCNC(=O)COCCOCCNC(=O)COCCOCCNC(=O)CN(CCCNC(=O)CC[C@H](NC(=O)[C@H]1CC[C@H](CNC(=O)CCCCCCCCCCCCCCCCCCC(=O)O)CC1)C(=O)O)CCCNC(=O)CC[C@H](NC(=O)[C@H]1CC[C@H](CNC(=O)CCCCCCCCCCCCCCCCCCC(=O)O)CC1)C(=O)O)C(=O)NCC(=O)O)C(C)C [Example 30] (H-H[Aib]EGTFTSDVSSYLEEQAAREFIAWLVRGK([AEEA-AEEA-AEEA-AEEA-AEEA-AEEA-X2])G-OH; N-terminus and C-terminus assumed) | 4100
